Measured values published in patent publication US11504385B2, “Proteolysis targeting chimeric molecule, preparation method, and application” (CHINA PHARMACEUTICAL UNIVERSITY, priority 2019, dated 2022).

Legend:
[1] = target: T1, BCR-ABL fusion protein (Homo sapiens, UniProt P00519+P11274+Q96SW2, E27K); assay: Immunoblotting, degradation of BCR-ABL protein in K562 cells; assay type: cell-based; conditions: for inhibition of expression of BCR-ABL and/or CRBN protein: BCR-ABL and/or CRBN positive leukemia K562 cells, to varying degrees
T1 construct: By using BCR-ABL and CRBN positive K562 cell lines; endogenous in cells; host or cells: K562
Method: (§1) Initially, researchers synthesized a 2C compound (FIG. 2A), which is a small molecule with the shortest joining chain (n=1). By using BCR-ABL and CRBN positive K562 cell lines, degradation of ABL and BCR-ABL proteins in the cells under the action of the compound was tested by immunoblotting. […] Then, the researchers tried to extend the joining chain (increasing the value of n).
(§2) In order to test the degradation effect of the compound 4C on c-ABL and BCR-ABL proteins in K562 cells, the researchers performed an immunoblotting experiment. […] In order to exclude the possibility that the compound 4C affected the ABL gene to generate false positive expression, the researchers used RT-qPCR in K562 cells to study the expression of the ABL gene.
The operation method of the immunoblotting experiment is as follows: […]
(§3) The medium was aspirated from the culture; the cells were washed with 1*PBS; and the cells were aspirated.
(§4) A weak RIPA lysate (100 μL) was added to lyse the cells for 40 min.
(§5) The sample was centrifuged at 13000 rpm, 4° C. for 15 min; 80 μl of supernatant was taken and added to 20 μl of loading buffer; the reaction solution was heated at 100° C. for 8 minutes; and the sample was placed on ice and cooled.
(§6) […] of sample was loaded on 10% SDS-PAGE gel. The sample was transferred to a PVDF membrane by a wet process.
(§7) A membrane was placed in 25 ml of blocking buffer and blocked at room temperature for 1 hour.
(§8) The membrane and the primary antibody (according to the appropriate dilution and diluent recommended in the product description) were placed in 10 ml of primary antibody dilution buffer, and incubated overnight at 4° C. and gently shaken from time to time.
(§9) Anti-rabbit IgG, HRP-linked Antibody (#7074, in a ratio of 1:2000) and anti-biotin, HRP-linked Antibody (#7075, in a ratio of 1:1000-1:3000) are diluted with 10 ml of blocking buffer to detect biotinylated protein standards. The membrane was incubated with the diluent, and gently shaken and incubated at room temperature for 1 hour.
(§10) A developer solution and the membrane were incubated together for 1 minute, the excess solution was discarded (the membrane remained moist) and the membrane was exposed.
(§11) Next, we tested the difference in the activity of different configurations of compound 4C in degradation of ABL and BCR-ABL proteins. […] The operation method of the immunoblotting experiment is the same as above.

[2] = target: T2, ABL (Homo sapiens, UniProt P00519); assay: Immunoblotting, degradation of ABL protein in K562 cells; assay type: cell-based; conditions: 100 nM, 36 hours after administration
T2 construct: degradation effect of the compound 4C on c-ABL and BCR-ABL proteins in K562 cells; endogenous in cells; host or cells: K562
Method: as §1, §2
The operation method of the immunoblotting experiment is as follows:
K562 cells after administration were incubated for 24 hours.
as §3, §4, §5, §6, §7, §8, §9, §10, §11

T2 sequence (P00519 whole entry): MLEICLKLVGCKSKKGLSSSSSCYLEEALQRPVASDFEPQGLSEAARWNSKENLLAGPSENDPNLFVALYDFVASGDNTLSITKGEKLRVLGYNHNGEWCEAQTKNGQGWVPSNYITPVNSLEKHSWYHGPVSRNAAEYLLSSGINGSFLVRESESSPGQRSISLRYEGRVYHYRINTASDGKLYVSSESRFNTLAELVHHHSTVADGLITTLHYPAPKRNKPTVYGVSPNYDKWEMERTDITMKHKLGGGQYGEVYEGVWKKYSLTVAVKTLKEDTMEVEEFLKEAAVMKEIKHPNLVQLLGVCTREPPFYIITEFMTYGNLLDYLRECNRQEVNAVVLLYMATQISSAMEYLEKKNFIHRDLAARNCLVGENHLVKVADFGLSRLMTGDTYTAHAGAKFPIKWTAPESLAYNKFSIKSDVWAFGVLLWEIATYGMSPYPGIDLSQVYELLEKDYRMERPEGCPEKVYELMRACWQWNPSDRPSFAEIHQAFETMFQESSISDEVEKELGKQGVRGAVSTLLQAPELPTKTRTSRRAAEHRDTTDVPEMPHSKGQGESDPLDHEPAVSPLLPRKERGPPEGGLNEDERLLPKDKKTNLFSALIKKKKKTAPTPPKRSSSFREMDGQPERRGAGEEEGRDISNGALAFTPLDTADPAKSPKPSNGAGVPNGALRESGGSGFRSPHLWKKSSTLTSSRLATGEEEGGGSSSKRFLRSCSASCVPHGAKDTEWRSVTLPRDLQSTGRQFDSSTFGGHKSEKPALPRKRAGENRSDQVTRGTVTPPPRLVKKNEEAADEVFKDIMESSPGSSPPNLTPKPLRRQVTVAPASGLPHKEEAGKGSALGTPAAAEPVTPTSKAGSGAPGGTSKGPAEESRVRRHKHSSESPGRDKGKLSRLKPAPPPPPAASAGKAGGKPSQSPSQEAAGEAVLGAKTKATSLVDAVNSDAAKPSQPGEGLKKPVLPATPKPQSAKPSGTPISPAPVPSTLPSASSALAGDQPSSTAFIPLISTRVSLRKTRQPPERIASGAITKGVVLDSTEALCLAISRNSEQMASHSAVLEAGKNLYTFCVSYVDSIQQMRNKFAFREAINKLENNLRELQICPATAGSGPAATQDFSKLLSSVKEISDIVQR

Compound: Cc1nc(Nc2ncc(C(=O)Nc3c(C)cccc3Cl)s2)cc(N2CCN(CCCCCCOc3ccc(/N=N/c4ccc(C(=O)Nc5cccc6c5CN(C5CCC(=O)NC5=O)C6=O)cc4)cc3)CC2)n1 (stereo not shown) [Compound 6C, (E)-N-(2-chloro-6-methylphenyl)-2-((6-(4-(6-(4-((4-((2-(2,6-dioxopiperidin-3-yl)-1-oxoisoindolin-4-yl)carbamoyl)phenyl)diazenyl)phenoxy)hexyl)piperazin-1-yl)-2-methylpyrimidin-4-yl)amino)thiazole-5-carboxamide]
- inhibition of expression of BCR-ABL and/or CRBN protein [1]: can inhibit the expression

Compound: Cc1nc(Nc2ncc(C(=O)Nc3c(C)cccc3Cl)s2)cc(N2CCN(CCCCCOc3ccc(/N=N/c4ccc(C(=O)Nc5cccc6c5CN(C5CCC(=O)NC5=O)C6=O)cc4)cc3)CC2)n1 (stereo not shown) [Compound 5C, (E)-N-(2-chloro-6-methylphenyl)-2-((6-(4-(5-(4-((4-((2-(2,6-dioxopiperidin-3-yl)-1-oxoisoindolin-4-yl)carbamoyl)phenyl)diazenyl)phenoxy)pentyl)piperazin-1-yl)-2-methylpyrimidin-4-yl)amino)thiazole-5-carboxamide]
- inhibition of expression of BCR-ABL and/or CRBN protein [1]: can inhibit the expression

Compound: Cc1nc(Nc2ncc(C(=O)Nc3c(C)cccc3Cl)s2)cc(N2CCN(CCOc3ccc(/N=N/c4ccc(C(=O)Nc5cccc6c5CN(C5CCC(=O)NC5=O)C6=O)cc4)cc3)CC2)n1 (stereo not shown) [Compound 2C, (E)-N-(2-chloro-6-methylphenyl)-2-((6-(4-(2-(4-((4-((2-(2,6-dioxopiperidin-3-yl)-1-oxoisoindolin-4-yl)carbamoyl)phenyl)diazenyl)phenoxy)ethyl)piperazin-1-yl)-2-methylpyrimidin-4-yl)amino)thiazole-5-carboxamide]
- level of the ABL protein (WB) [2]: significantly reduced
- inhibition of expression of BCR-ABL and/or CRBN protein [1]: can inhibit the expression
- level of BCR-ABL fusion protein (WB) ([1]; K562 cells, 100 nM, 36 hours after administration): significantly reduced
- level of the BCR-ABL protein (WB) ([1]; K562 cells, 36 hours after administration, dose-effect): down-regulate the level of the BCR-ABL protein in a dose-dependent manner

Compound: Cc1nc(Nc2ncc(C(=O)Nc3c(C)cccc3Cl)s2)cc(N2CCN(CCCOc3ccc(/N=N/c4ccc(C(=O)Nc5cccc6c5CN(C5CCC(=O)NC5=O)C6=O)cc4)cc3)CC2)n1 (stereo not shown) [Compound 3C, (E)-N-(2-chloro-6-methylphenyl)-2-((6-(4-(3-(4-((4-((2-(2,6-dioxopiperidin-3-yl)-1-oxoisoindolin-4-yl)carbamoyl)phenyl)diazenyl)phenoxy)propyl)piperazin-1-yl)-2-methylpyrimidin-4-yl)amino)thiazole-5-carboxamide]
- inhibition of expression of BCR-ABL and/or CRBN protein [1]: can inhibit the expression
